The values that follow come from patent US20110269942A1, “ANTIBODIES MODIFIED WITH HYDROPHOBIC MOLECULE” (DAIICHI SANKYO COMPANY, LIMITED, priority 2007, published 2011).

For assay [1], the target named is human DR5 (death receptor 5) (human) (UniProt O14763). The assay can be described thus: cell-based or functional assay.
Assay [2] deals with Jurkat cells. Put plainly: Apoptosis-inducing activity of hydrophobic molecule-modified antibodies against Jurkat cells (cell viability from ATP level; method of Test Example 13). It is filed as cell-based, human. As to conditions: 72 hr.
Assay [3] relates to BxPC-3 cells. Put plainly: Apoptosis-inducing activity of hydrophobic molecule-modified antibodies against BxPC-3 cells (cell viability from ATP level). It counts as cell-based, human.
For assay [4], the system named is human colon cancer strain COLO 205. The assay can be described thus: Antitumor activity against human colon cancer strain COLO 205-transplanted nude mice (tumor volume, rate of tumor growth). To be noted: 0.33 mg/ml, 0.1 ml per 10 g body weight i.v., Days 8, 11, 13, 15, 18, 20, 22, 25, 27. It is filed as in vivo, nude mice BALB/cA Jcl-nu. The method, then:
The in-vivo antitumor activity of the immunoliposome prepared in Example 5 was studied. 2×10^6 cells of a human colon cancer strain COLO 205 (purchased from American Type Culture Collection) which was confirmed by quarantine to have no detectable mouse pathogenic microorganisms were hypodermically transplanted to the axillary region of nude mice BALB/cA Jcl-nu (CLEA Japan, Inc.). The immunoliposome of Example 5 was diluted, immediately before its administration, with saline (Otsuka Pharmaceutical Co., Ltd.) to 1 and 0.33 mg/ml in terms of antibody concentrations. Seven days after the transplantation, the administration of the immunoliposome of Example 5 to COLO 205 cancer-bearing mice in which the tumor successfully grafted was started. […]
The major axis and minor axis of the transplanted tumor were measured two to three times a week using an electronic vernier caliper (CD-15C; Mitutoyo Corp.). The tumor volume was determined according to the following calculation formula:
Tumor volume (mm^3)=½×minor axis^2 (mm)×major axis (mm).
Moreover, the rate of tumor growth (mm^3/day) of each individual was calculated, and the statistically significant difference was tested by a Dunnett test using the value. In this context, a P value less than 0.05 was regarded as being a significant difference among groups. […]

In assay [5] the test system is human malignant melanoma cell strain A375 cells. Put plainly: Apoptosis-inducing activity of immunoliposomes against A375 cells (cell viability from ATP level). It is filed as cell-based. To be noted: antibody not conjugated to an immunoliposome. The procedure:
(§1) Jurkat cells were counted by a trypan blue staining method, and the concentration was then adjusted to 1×10^5 cells/ml with a DMEM medium (manufactured by Invitrogen Corp.; hereinafter, referred to as a DMEM medium) containing 10% fetal calf serum (manufactured by Hyclone Laboratories, Inc.). […] To this microplate, the cell suspension was inoculated in an amount of 50 μl (5×10^3 cells)/well. The plate was cultured at 37° C. for 72 hr in the presence of 5% carbon dioxide, and the ATP level of each well was measured. […] Then, the supernatant was transferred in an amount of 100 μl/well to a 96-well white microplate (manufactured by Corning Inc.), and luminescence from each well was measured using a luminometer (manufactured by Molecular Devices Corp.). […] The cell viability of each well was calculated according to the following equation:
(§2) Cell viability (%)=(Luminescence intensity of test wells−Average luminescence intensity of background wells)/(Average luminescence intensity of negative control wells−Average luminescence intensity of background wells)×100.
The apoptosis-inducing activities against human malignant melanoma cell strain A375 cells were measured according to the method described in Test Example 1.

Assay [6] deals with human malignant melanoma cell strain A2058 cells. The assay can be described thus: Apoptosis-inducing activity of immunoliposomes against A2058 cells (cell viability from ATP level). It counts as cell-based. As to conditions: antibody not conjugated to an immunoliposome. The method, then: as §1, §2
The apoptosis-inducing activities against human malignant melanoma cell strain A2058 cells were measured according to the method described in Test Example 1.

Assay [7] deals with T1, human Fas (human, UniProt P25445 26-335).
T1 sequence (looked up): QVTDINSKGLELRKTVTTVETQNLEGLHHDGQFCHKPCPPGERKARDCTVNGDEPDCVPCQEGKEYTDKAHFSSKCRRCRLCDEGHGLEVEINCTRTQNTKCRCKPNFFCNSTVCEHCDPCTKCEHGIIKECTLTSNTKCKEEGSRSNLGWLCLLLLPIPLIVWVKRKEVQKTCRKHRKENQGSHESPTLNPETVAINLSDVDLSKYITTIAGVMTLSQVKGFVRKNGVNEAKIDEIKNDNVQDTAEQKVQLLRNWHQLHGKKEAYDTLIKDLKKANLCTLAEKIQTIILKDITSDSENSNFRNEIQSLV
The assay can be described thus: cell-based or functional assay.

In assay [1], “DSPE-PEG2000-modified MAB631 Fullbody of Example 49 (antibody)” yielded an EC50 (concentration exhibiting 50% cell viability), Jurkat cells, Test Example 20 of 0.025 ng/mL and a cell viability (Jurkat cells) below 10%. Besides, in assay [1] (scale: fold), the EC50 relative to Ab, Jurkat cells, Test Example 20 is 58.4. Regarding “Example 32: DSPE-PEG2000-modified hTRA-8 Fab′ (Cys), reaction ratio 1:4”, the “apoptosis-inducing activity compared with that of secondary antibody-cross-linked hTRA-8” value in assay [2] was “stronger”. For “Example 33: DSPE-PEG2000-modified hTRA-8 Fullbody (Lys), reaction ratio 1:1”, the “apoptosis-inducing activity compared with that of secondary antibody-cross-linked hTRA-8” value in assay [2] is listed as “stronger”. For the molecule “Example 34: DSPE-PEG2000-modified hTRA-8 Fullbody (Lys), reaction ratio 1:4”, the “apoptosis-inducing activity compared with that of secondary antibody-cross-linked hTRA-8” value in assay [2] is on record as “stronger”. The same measure, in the same setting: as for “Example 35: DSPE-PEG2000-modified hTRA-8 Fullbody (Lys), reaction ratio 1:12”, the entry is “stronger”.

In the case of “Example 36: DSPE-PEG2000-modified hTRA-8 Fullbody (Cys), reaction ratio 1:10”, the “apoptosis-inducing activity compared with that of secondary antibody-cross-linked hTRA-8” value in assay [2] was “stronger”. Regarding “Example 37: DSPE-PEG2000-modified hTRA-8 Fab′ (Cys), reaction ratio 1:1”, the “apoptosis-inducing activity compared with that of secondary antibody-cross-linked hTRA-8” value is listed as “stronger” in assay [3] and “equivalent to or stronger” in assay [2]. Regarding “Example 38: DSPE-PEG10000-modified hTRA-8 Fab′ (Cys)”, the “apoptosis-inducing activity compared with that of secondary antibody-cross-linked hTRA-8” value in assay [2] was “equivalent to or stronger”. Turning to “Example 39: DPPE-PEG2000-modified hTRA-8 Fab′ (Cys)”, the “apoptosis-inducing activity compared with that of secondary antibody-cross-linked hTRA-8” value in assay [2] is “equivalent to or stronger”.

“Example 40: Chol-PEG5000-modified hTRA-8 Fab′ (Cys)”: the “apoptosis-inducing activity compared with that of secondary antibody-cross-linked hTRA-8” value in assay [2] is reported as “equivalent to or stronger”. As to “Example 41: DSPE-PEG10000-modified hTRA-8 Fullbody (Lys)”, the “apoptosis-inducing activity compared with that of secondary antibody-cross-linked hTRA-8” value in assay [2] is reported as “stronger”. Consider “Example 42: DPPE-PEG2000-modified hTRA-8 Fullbody (Lys)”, for which the “apoptosis-inducing activity compared with that of secondary antibody-cross-linked hTRA-8” value in assay [2] is reported as “stronger”. On to “Example 43: Chol-PEG5000-modified hTRA-8 Fullbody (Lys)”, for which, in assay [2], the “apoptosis-inducing activity compared with that of secondary antibody-cross-linked hTRA-8” value is listed as “stronger”.

In the case of “Example 45: DSPE-PEG3400-modified hTRA-8 Fullbody (Lys)”, the “apoptosis-inducing activity compared with that of secondary antibody-cross-linked hTRA-8” value in assay [2] is on record as “stronger”.

In the case of “Example 46: DSPE-PEG5000-modified hTRA-8 Fullbody (Lys), reaction ratio 1:2”, the “apoptosis-inducing activity compared with that of secondary antibody-cross-linked hTRA-8” value in assay [3] and in assay [2] was “stronger” each time. As for “Example 47: DSPE-PEG2000-modified hTRA-8 Fullbody (Lys), reaction ratio 1:1, large scale”, in assay [4], the “antitumor activity (rate of tumor growth, Dunnett test)” value is listed as “antitumor activity with a statistically significant difference”. For “Example 48: DSPE-PEG2000-modified hTRA-8 F(ab′)2 (Lys)”, the “apoptosis-inducing activity compared with that of secondary antibody-cross-linked hTRA-8” value in assay [3] was “stronger”. With “Example 52: PEG2000-modified hTRA-8 Fullbody (Lys), hydrophobic molecule-free, water-soluble linker-modified antibody”, in assay [3] (1000, 100, 10, or 1 ng/ml), the “apoptosis-inducing activity (in words)” value was “weak”. Consider “Example 53: PEG5000-modified hTRA-8 Fullbody (Lys), hydrophobic molecule-free, water-soluble linker-modified antibody”, for which the “apoptosis-inducing activity (in words)” value in assay [3] (1000, 100, 10, or 1 ng/ml) is given as “weak”. With “Example 54: PEG2000-modified hTRA-8 Fab′ (Cys), hydrophobic molecule-free, water-soluble linker-modified antibody”, the “apoptosis-inducing activity (in words)” value in assay [3] (1000, 100, 10, or 1 ng/ml) is listed as “weak”. With “hTRA-8 F(ab′)2 fragment: F(ab′)2 fragment obtained by pepsin digestion of hTRA-8”, in assay [3] (1000, 100, 10, or 1 ng/ml), the “apoptosis-inducing activity (in words)” value was “hardly exhibited an apoptosis-inducing activity”. “hTRA-8 Fab′ fragment: Fab′ obtained by reducing hTRA-8 F(ab′)2 with DTT”: the “apoptosis-inducing activity (in words)” value in assay [3] (1000, 100, 10, or 1 ng/ml) is “hardly exhibited an apoptosis-inducing activity”. Turning to “hTRA-8: antibody obtained by humanizing mouse anti-human DR5 antibody TRA-8; heavy chain SEQ ID NO: 1, light chain SEQ ID NO: 2”, the “apoptosis-inducing activity (in words)” value in assay [5], in assay [6] and in assay [3] (uncross-linked with secondary antibody) was “weak” each time.

B1: DSPE-PEG2000-modified hHFE7A Fullbody of Example 50 (antibody, human IgG1, kappa, V domains shown)
VH: QVQLVQSGAEVKKPGASVKVSCKASGYTFTSYWMQWVKQAPGQGLEWMGEIDPSDSYTNYNQKFKGKATLTVDTSTSTAYMELSSLRSEDTAVYYCARNRDYSNNWYFDVWGEGTLVTVSS
VL: EIVLTQSPGTLSLSPGERATLSCKASQSVDYDGDSYMNWYQQKPGQAPRLLIYAASNLESGIPDRFSGSGSGTDFTLTISRLEPEDFAVYYCQQSNEDPRTFGQGTKLEIKR
modifications: DSPE-PEG2000 on thiolated Lys (residue and chain not specified)
Consider B1, for which, in assay [7], the “EC50 (concentration exhibiting 50% cell viability), Jurkat cells, Test Example 21” value turned out to be 6.94 ng/mL and the “EC50 relative to Ab, Jurkat cells, Test Example 21” value was > 144 fold (control antibody EC50 / modified antibody EC50).

B2: anti-human Fas antibody hHFE7A (humanized HFE7A), Fullbody (antibody, human IgG1, kappa, V domains shown)
VH: B1 VH
VL: B1 VL
Regarding B2, in assay [7], the “Cross-linked Antibody EC50, Jurkat cells, Test Example 21” value is above 1000 ng/mL.
